The subject of series [1] is human patients with single or multiple retinal tears. Kind of series: Treatment of retinal tears: intravitreal urea 3 days before pneumatic Retinopexy. The series is classed as in vivo. On the procedure: All patients received pneumatic Retinopexy treatment 3 days after intravitreal injection of 1.5 mg of urea in 50 μl of aqueous solution prepared according to the formulation set forth in Table II above. […] Within 3-7 days after urea injection, 11/12 patients had developed PVD, only 1/12 patients had not developed PVD. Within 90 days of the urea injection that one patient also developed PVD.
Within 3 days of treatment 9/12 patients had complete retinal reattachment and macular attachment, and within 7 days all 12 patients had complete retinal reattachment and macular attachment. […]
(Tornambe, P. E. et. al. Opthalmology, 1989; 96: 772-783).

Series [2] concerns patient with stage 3 idiopathic macular hole. Kind of series: Treatment of idiopathic macular hole: intravitreal urea followed by expandable gas. The series is classed as in vivo, human. To be noted: for visual acuity: baseline 20/400; for size of the macular hole: baseline 450 μm. As for the experimental part: The macular defect was classified as a stage 3 macular hole, and the patient's visual acuity was recorded at 20/400 at a baseline time point prior to urea treatment. […] Seven days after the intravitreal urea injection the patient was administered an intravitreal injection of 0.3 ml of expandable gas (C3 F8).
One week after administration of the gas, the size of the macular hole had decreased from 450 μm to a smaller size of 200 μm and the patient's vision had improved from a baseline visual acuity of 20/400 to 20/80. Two weeks post treatment the size of the macular hole had decreased from 450 μm to a smaller size of 90 μm and the patient's vision had improved from a baseline visual Acuity of 20/400 to 20170. Four weeks post treatment the size of the macular hole had decreased from 450 μm to a smaller size of 60 μm and the patient's vision had improved from a baseline visual acuity of 20/400 to 20/60.

The subject of series [3] is human patients with diabetes-related nonclearing vitreous hemorrhage. Put plainly: Treatment of vitreous hemorrhage. To be noted: within 2 to 4 weeks after single intravitreal injection of 6% urea, 0.9% sodium chloride; seven patients. In kind it is in vivo. As for the experimental part:
The formulations and treatments disclosed herein are also effective to treat vitreous hemorrhage. In this example, seven human patients were treated for diabetes-related nonclearing vitreous hemorrhage. Each patient received a single intravitreal injection of 1001l of a formulation containing urea. The formulation used in this example contained 6% urea, 0.9% sodium chloride, and sterile water for injection (qs 100%).

Series [4] relates to human patients requiring pars plana vitrectomy. Kind of series: Treatment as adjunct to vitrectomy. In kind it is in vivo. As for the experimental part:
In this example, five human patients requiring pars plana vitrectomy for various indications were treated one week prior to vitrectomy with a single intravitreal injection of 100 μl of a urea in aqueous solution. The formulation contained 6% urea, 0.9% sodium chloride, and sterile water for injection (qs 100%). All patients underwent routine vitrectomies 8 to 10 days after the urea injection. The minimum waiting time between the urea injection and the vitrectomy procedure is about 1 day to 3 days.
No vitrectomy cutter was used.

For series [5], the system named is patients with nonproliferative diabetic retinopathy. Put plainly: Treatment of diabetic retinopathy. In kind it is in vivo, human. The note with it: within 2-4 weeks after single intravitreal injection of 3% urea, 0.9% sodium chloride; 69 patients. An excerpt:
Sixty-nine patients with nonproliferative diabetic retinopathy were each administered a single intravitreal injection of 50 UI of a urea formulation containing 3% urea, 0.9% sodium chloride, and sterile water for injection.
The vitreous liquefaction and vitreous collapse in non-proliferative diabetic retinopathy patients would inhibit the growth and proliferation of the blood vessels, and thus inhibit the progression of diabetic retinopathy. All 69 (of the) patients were followed for six months following the procedure.

In series [6] the test system is human patients with retinitis pigmentosa. Put plainly: Treatment of retinitis pigmentosa, double masked placebo controlled dose escalation study. In kind it is in vivo. As for the experimental part: A double masked placebo controlled, randomized, dose escalation study was done in 32 human patients with retinitis pigmentosa. All patients were treated with a single intravitreal injection of 50 μl of a urea-containing formulation. Three groups of patients received different concentrations of urea. One group received a formulation containing 1.5% urea, 0.9% sodium chloride, and sterile water for injection. A second group received an identical formulation except the formulation contained 3.0% urea. A third group received an identical formulation except the formulation contained 6.0% urea. A placebo group received 50 μl of 0.9% sodium chloride.
Forty-seven percent of the patient reported an increase of at least 3 lines of best corrected visual acuity measured by ETDRS charts, whereas, only 14% of the placebo patients reported an increase of at least 3 lines of best corrected visual acuity measured by ETDRS charts.
There was no dramatic increase in the visual field of the placebo control patients.

For series [7], the system named is non sighted patients with optic nerve damage caused by trauma and/or glaucoma. Put plainly: Treatment of neuropathies, double masked placebo controlled dose escalation study. The series is classed as in vivo, human. As for the experimental part:
In accordance with the present disclosure, urea, thiourea, guanidine and possibly the other compounds of General Formula I above are effective to treat neuropathies 5 (e.g., disorders or damage to nerves). In this example, 33 non sighted patients with optic nerve damage caused by trauma and/or glaucoma, with visual acuity of light perception or no light perception were administered a urea-containing formulation, as disclosed herein. The study was a double masked placebo controlled, randomized, dose escalation study conducted with 33 human patients with optic nerve damage. Patients were randomized into 5 groups, Group 1 of 5 patients. Group 2 of 4 patients, Group 3 of 8 patients, Group 4 of 8 patients and Group 5 of 8 patients. Each patient received a single intravitreal injection of 50 UI of an aqueous treatment solution, as follows:
In Six patients the vision improved from No light perception to light perception, in 2 patients the vision improved from light perception to count fingers at 12 inches, in 2 patients the vision improved from no light perception to 20 20/400 and 20/800 vision and in 2 patients the vision improved from light perception to 20/600 and 20/800 vision. No patients in the placebo group reported any improvement in best corrected visual acuity as measured by ETDRS charts.

Series [8] deals with patients with long standing optic nerve damage related to optic nerve tumors. Kind of series: Treatment of optic nerve damage related to optic nerve tumors. In kind it is in vivo, human. As for the experimental part: In another study, three patients with long standing (6 months or longer) optic nerve damage related to optic nerve tumors were treated with a single intravitreal injection of 100 μl of a 6% urea containing formulation. All three patient treated reported a significant improvement in visual acuity after treatment. The patients' visual acuity improved from an average of Count Fingers at 12 inches to 20/200.

Series [9] has as its system non-diabetic patients with symptomatic VMA. Put plainly: U.S. Phase Ib study: induction of PVD by multiple intravitreal injections of urea. In kind it is in vivo, human. The note with it: preliminary. On the procedure:
(§1) A study was conducted to examine effect of multiple intravitreal injections of small molecule formulation of urea on induction of posterior vitreous detachment (PVD).
(§2) Formulation: Sterile lyophilized Urea, USP-NF in buffered isotonic saline for intravitreal injections. Injectable: Reconstituted with 300 μL sterile water for injection. Dosage form: 100 μL dose contains 18 mg Urea, USP-NF (18% w/v) in glass vial. Storage: room temperature. Stability: stable >24 mo for lyophilized form. […] PVD rate: 25% targeted efficacy.
(§3) U.S. study design: 2:1 randomized, Phase Ib, dose ranging & safety study. Patient population: 30 non-diabetic patients with symptomatic VMA. Treatment: high dose arm (Day 0: 100 μL 18% w/v injection; Day 30: 100 μL 18% w/v injection for all unresolved patients); low dose arm (Day 0: 100 μL 9% w/v injection; Day 30: 100 μL 9% w/v injection for all unresolved patients). Follow-up: days 0, 2, 8, 15, 30, 60, 90 and 180.

Series [10] shares this test system. Put plainly: Ex-U.S. Phase Ib study: induction of PVD by multiple intravitreal injections of urea. The series is classed as in vivo, human. The note with it: preliminary. As for the experimental part:
as §1, §2
(§4) Ex-U.S. study design: 3:1 randomized, controlled, Phase Ib, POC & safety study. Patient population: non-diabetic patients with symptomatic VMA. Treatment arm: 20 patients. Control arm: 5 patients. Treatment: high dose arm (Day 0: 100 μL 36% w/v injection; Day 30: 100 μL 36% w/v injection for all unresolved patients); low dose arm (Day 0: 100 μL 18% w/v injection; Day 30: 100 μL 18% w/v injection for all unresolved patients). Follow-up: days 0, 2, 8, 15, 30, 45, 60 and 90.

Series [11] shares this test system. Kind of series: Multiple intravitreal injections of urea: overall (pooled) results. In kind it is in vivo, human. On the procedure: as §1, §2, §3, §4
FIGS. 10 and 11 show the preliminary US and ex-US results, respectively. For the US study, 4 of 10 patients in high-dose group met primary endpoint, 1 of 7 patients in low-dose group met primary endpoint. For the ex-US study, 5 of 11 patients in high-dose group met primary endpoint, 3 of 6 patients in low-dose group met primary endpoint.

Series [12] can be described thus: Storage stability of lyophilized urea formulation. The series is classed as physicochemical. The note with it: storage at room temperature. As for the experimental part:
as §2

The conditions of series [13]: cited from earlier work.
The subject of series [14] is vitreous and retina of injected eyes. To be noted: cited from earlier work.
[15] abbreviates: one week after administration of the gas.

Bounds are passed on as bounds.

With `NC(N)=O` [urea], the “adverse effects of the intravitreal injection, ophthalmoscopic and biomicroscopic examination” value was “no adverse effects” in series [1] (1.5 mg urea in 50 μl, Table II formulation, 12 patients) and “no adverse effects” in [2] (1.5 mg urea, Table III formulation). Besides, the “patients with improvement of more than 2 lines of visual acuity (11 letters)” value in series [1] (6 months post Retinopexy) and in [1] (time not printed in the sentence (1 month post Retinopexy by context)) was 64% in each case. Also, in series [1] (follow up 90 days), the “occurrence of new retinal tears with associated retinal detachment” value is “none”. Moreover, in [1] (within 3-7 days after urea injection), the “patients who developed PVD” value was 11/12. For the same compound, the “patients with complete retinal reattachment and macular attachment” value in series [1] (within 3 days of treatment) was 9/12; in series [1] (within 7 days) it was 12 patients. Also, the visual acuity in series [2] (four weeks post treatment) is reported as 20/60; in series [2] (setting [15]), 20/80. For the same compound, the “size of the macular hole” value was determined as 60 μm in series [2] (four weeks post treatment), 200 μm in [2] (setting [15]) and 90 μm in series [2] (two weeks post treatment). Besides, the “time to complete Posterior Vitreous Detachment (PVD)” value in series [2] (single intravitreal injection 1.5 mg urea, Table III formulation, one patient) is on record as no more than 7 days. The “patients with clearance of vitreous hemorrhage sufficient to treat the retina with photocoagulation” value in series [3] was “All seven”. Besides, the “decrease in surgical time relative to patients who did not receive urea” value in series [4] (6% urea, 100 μl intravitreal one week prior to vitrectomy) amounted to 70%. In series [4] (by one week after single intravitreal 100 μl of 6% urea, 0.9% sodium chloride, five patients), the “vitreous status at the time of vitrectomy” value was “complete vitreous liquefaction and collapse”. Besides, in [5], the “patients with complete vitreous liquefaction and collapse” value stood at 69 patients. The “patients with an increase of at least 3 lines of best corrected visual acuity (ETDRS charts)” value in series [6] (single intravitreal 50 μl of 1.5%, 3.0% or 6.0% urea, placebo 14%) is listed as “Forty-seven”. Moreover, the “average improvement in the patient's visual field” value in series [6] (urea-treated patients) was determined as 10 degrees. For the same compound, in series [7] (in vivo), the “patients whose vision improved from No light perception to light perception” value is reported as “Six”. Also, in [7] (in vivo), the “patients whose vision improved from light perception to 20/600 and 20/800 vision” value is on record as 2 patients. The “patients whose vision improved from light perception to count fingers at 12 inches” value in series [7] (in vivo) came out at 2 patients. Besides, the “patients whose vision improved from no light perception to 20/400 and 20/800 vision” value in [7] (in vivo) is on record as 2 patients. For the same compound, the “patients with an increase of best corrected visual acuity (ETDRS charts)” value in series [7] (single intravitreal injection of 0.2%, 1.5%, 3.0% or 6.0% urea, no improvement in placebo group) is given as “Forty-three”. Also, the “average visual acuity after treatment” value in series [8] (from an average of Count Fingers at 12 inches) is reported as 20/200. Also, the “patients reporting a significant improvement in visual acuity after treatment” value in [8] (single intravitreal 100 μl of 6% urea, three patients) was “All three”. Moreover, the “patients who met primary endpoint” value is 4 of 10 in series [9] (high-dose group, 100 μL 18% w/v); 1 of 7 in series [9] (low-dose group, 100 μL 9% w/v); 5 of 11 in series [10] (high-dose group, 100 μL 36% w/v); 3 of 6 in series [10] (low-dose group, 100 μL 18% w/v). Besides, the efficacy in [11] (after a second injection) came out at 40%; in [11] (with one injection) it was 30%. Moreover, the “% resolution of VMA” value in [11] (non-ERM) worked out at 44%. Also, the “safety: drug related adverse effects” value in series [11] (up to 4 injections) is “no drug related adverse effects”. Besides, the “stability of lyophilized form” value in [12] is greater than 24 mo. Also, the pH of solution in [13] (10% water solution) is on record as 7.2. The “stability of the solid” value in [13] (stored under dry conditions) is given as “stable at room temperature”.
In the case of Collagenase, the “reported adverse effect on the injected eye” value in [14] (dispase: 15 minutes after injection) is “disrupt the outer layers of the retina”. Moreover, the “reported effect on the vitreous” value in [14] (in vivo) is “liquefy the vitreous”.
